A short description of data set [1]: Plasma stability of TA/SA γ-MSH peptides in reconstituted human plasma. It is filed as in vitro ADME. The conditions noted are these: 37°C. As for the experimental part:
For studies on the plasma stability of TA/SA γ-MSH, lyophilized citrated plasma from a pool of human donors was reconstituted in H2O as indicated by the manufacturer (# P9523, Sigma-Aldrich Chemie GmbH). Stability of human γ-MSH peptides was evaluated in fresh frozen human plasma (Interregional Blood Transfusion Swiss Red Cross Ltd, Epalinges, Swizerland). To this end, pooled samples of complete EDTA blood were centrifuged for 10 min at 1300 g, plasma was separated from buffy coat and erythrocytes and cleared by an additional 10 min centrifugation step at 1300 g. Cerebrospinal fluid pooled from ≥ 3 human donors was provided in liquid phase (# 991-19-P, Lee Biosolutions Inc., Maryland Heights, MO, USA). Aliquots of both body fluids were stored at -80°C until use. Samples of reconstituted plasma or CSF were thawed on ice, the pH of fresh frozen plasma was adjusted to 7.4 by addition of triethanolamine to a final concentration of 50 mM, and 45 μl aliquots were distributed to 1.5 ml Protein LoBind Tubes (Eppendorf AG, Hamburg, Germany). The γ-MSH synthetic peptides were pre-diluted in H2O to 20 μM, and 5 μl each were added on ice to 45 μl pre-laid samples of plasma or CSF. The γ-MSH starting concentration in degradation assays was thus 2 μM. Immediately after mixing, a first 5 μl aliquot for time point zero was removed, tubes were then transferred to a 37°C heat block, and further 5 μl aliquots were collected from plasma and CSF samples after various incubation times up to 68 h and 72.5 h, respectively. For control purposes, γ-MSH peptides were also diluted in H2O to a concentration of 2 μM and aliquots were removed after the corresponding incubation times at 37°C. All collected 5 μl aliquots were immediately diluted in 45 μl H2O and frozen on dry ice in 96 well V-bottom non-binding microplates (Greiner Bio-One Vacuette Schweiz GmbH, St. Gallen, Schweiz) to stop further degradation. After completion of degradation time courses, collection plates were stored at -80°C.
(§1) The residual TA/SA or human γ-MSH signaling activities were simultaneously analyzed on Glo-sensor and TA or human MC3R transfected HEK293T cells, respectively. […] Maximal luminescence values for the residual γ-MSH ligand activities were determined for all time points in the degradation time course, were baseline subtracted and normalized to the maximal luminescence value at time point zero for the same ligand in the same plate. All degradation time courses were performed in triplicate and read on three separate 96 well plates. […] Degradation curves were established by non-linear regression curve fit (least square fit) and half-lives determined from one phase decay curves. […]

The nature of data set [2]: Cerebrospinal fluid stability of γ-MSH peptides. It is filed as in vitro ADME. The conditions noted are these: pooled human CSF, 2 μM peptide, 37°C, up to 72 h, residual cAMP signaling on TA MC3R. As for the experimental part:
(§2) For studies on the plasma stability of TA/SA γ-MSH, lyophilized citrated plasma from a pool of human donors was reconstituted in H2O as indicated by the manufacturer (# P9523, Sigma-Aldrich Chemie GmbH). Stability of human γ-MSH peptides was evaluated in fresh frozen human plasma (Interregional Blood Transfusion Swiss Red Cross Ltd, Epalinges, Swizerland). To this end, pooled samples of complete EDTA blood were centrifuged for 10 min at 1300 g, plasma was separated from buffy coat and erythrocytes and cleared by an additional 10 min centrifugation step at 1300 g. Cerebrospinal fluid pooled from ≥ 3 human donors was provided in liquid phase (# 991-19-P, Lee Biosolutions Inc., Maryland Heights, MO, USA). […]
as §1

Data set [3] is described as follows: Plasma stability of human γ-MSH peptides in fresh frozen human plasma. The conditions noted are these: 37°C, non-glycosylated synthetic peptides. It is filed as in vitro ADME. As for the experimental part:
as §2, §1

A further data set concerns TA PC2 (with mouse 7B2). Description: supernatants of HEK293T cells transfected with TA PCSK2 and mouse 7B2 plasmids, 5 mM CaCl2, pH 5.5 (pH 4.1 to 8.1). The conditions noted are these: human (HEK293T); Tyto alba alba enzyme.
A short description of data set [4]: supernatants of mock-transfected HEK293T cells (IRES GFP-plasmid only). The conditions noted are these: human (HEK293T).
The subject of a further data set is TA PC1/3. Nature of the data set: supernatants of HEK293T cells transfected with TA PCSK1 plasmid, 5 mM CaCl2, pH 5.5 (pH 4.1 to 8.1). The conditions noted are these: human (HEK293T); Tyto alba alba enzyme.
A short description of data set [5]: Cerebrospinal fluid pooled from ≥ 3 human donors. The conditions noted are these: 37°C, up to 72.5 h.

Seven molecules from article PMC7199972 (PLoS ONE, 2020) can be followed below.

Residues, ends and D or L forms follow the SMILES beside them.

Take `CSCC[C@H](NC(=O)[C@@H](NC(=O)[C@@H](N)Cc1ccc(O)cc1)C(C)C)C(=O)N[C@@H](CO)C(=O)N[C@@H](Cc1c[nH]cn1)C(=O)N[C@@H](Cc1ccccc1)C(=O)N[C@@H](CCCNC(=N)N)C(=O)N[C@@H](Cc1c[nH]c2ccccc12)C(=O)N[C@@H](CC(N)=O)C(=O)N[C@@H](CCCCN)C(=O)N[C@@H](Cc1ccccc1)C(=O)NCC(N)=O` [SA / TA γ2-MSH] (H-YVMSHFRWNKFG-NH2): in data set [1] (reconstituted pooled human plasma, 2 μM peptide, residual cAMP signaling on TA MC3R, one-phase decay, triplicate), the plasma half-life is 0.45 h. Besides, in data set [2], the “half-life in human CSF” value is on record as greater than 7.5 h. Besides, the “stability in human cerebrospinal fluid” value in data set [2] (triplicate) is “stable for several hours”.
In the case of `CSCC[C@H](NC(=O)[C@@H](NC(=O)[C@@H](N)Cc1ccc(O)cc1)C(C)C)C(=O)N[C@@H](CO)C(=O)N[C@@H](Cc1c[nH]cn1)C(=O)N[C@@H](Cc1ccccc1)C(=O)N[C@@H](CCCNC(=N)N)C(=O)N[C@@H](Cc1c[nH]c2ccccc12)C(=O)N[C@@H](CC(N)=O)C(=O)N[C@@H](CCCCN)C(=O)N[C@@H](Cc1ccccc1)C(=O)NCC(=O)N[C@@H](CCCNC(=N)N)C(=O)N[C@@H](CCCNC(=N)N)C(=O)N[C@@H](CC(N)=O)C(=O)N[C@@H](CO)C(=O)N[C@@H](CO)C(=O)N[C@@H](CO)C(=O)N[C@@H](CO)C(=O)N[C@@H](CO)C(=O)N[C@@H](CO)C(=O)N[C@@H](CO)C(=O)N[C@@H](CO)C(=O)N[C@@H](CO)C(=O)N[C@@H](CO)C(=O)N[C@@H](CO)C(=O)N[C@@H](CO)C(=O)N[C@@H](CO)C(=O)NCC(=O)NCC(=O)N[C@@H](Cc1c[nH]cn1)C(=O)O` [TA γ3-MSH 13 S] (H-YVMSHFRWNKFGRRNSSSSSSSSSSSSSGGH-OH), in data set [1] (reconstituted human plasma), the “plasma half-life, fold longer than that of γ2-MSH” value was 70 fold and the “plasma half-life, fold longer than that of γ3-MSH containing 5 serines” value is recorded as greater than 6 fold. In data set [1] (reconstituted lyophilized citrated pooled human plasma, 2 μM peptide, up to 68 h, residual cAMP signaling on TA MC3R/Glo-sensor HEK293T (luminescence), one-phase decay, triplicate), the “plasma half-life (t1/2)” value was greater than 30 h.
As to `CSCC[C@H](NC(=O)[C@@H](NC(=O)[C@@H](N)Cc1ccc(O)cc1)C(C)C)C(=O)NCC(=O)N[C@@H](Cc1c[nH]cn1)C(=O)N[C@@H](Cc1ccccc1)C(=O)N[C@@H](CCCNC(=N)N)C(=O)N[C@@H](Cc1c[nH]c2ccccc12)C(=O)N[C@@H](CC(=O)O)C(=O)N[C@@H](CCCNC(=N)N)C(=O)N[C@@H](Cc1ccccc1)C(=O)NCC(=O)N[C@@H](CCCNC(=N)N)C(=O)N[C@@H](CCCNC(=N)N)C(=O)N[C@@H](CC(N)=O)C(=O)N[C@@H](CO)C(=O)N[C@@H](CO)C(=O)N[C@@H](CO)C(=O)N[C@@H](CO)C(=O)NCC(=O)N[C@@H](CO)C(=O)N[C@@H](CO)C(=O)NCC(=O)N[C@@H](C)C(=O)NCC(=O)N[C@@H](CCC(N)=O)C(=O)O` [human γ3-MSH (wt)] (H-YVMGHFRWDRFGRRNSSSSGSSGAGQ-OH), the “plasma stability, fold increased over human γ2-MSH” value in data set [3] is recorded as greater than 100 fold.
Take “Pyr-ERTKR-AMC (L-pyroglutamyl-(arginine-threonine-lysine-arginine)-7-amino-3-methylcoumarin)”: the cleaved bond result in the data set with TA PC2 (with mouse 7B2) and in the data set with TA PC1/3 was “R-AMC” throughout. In addition, the not cleaved result in data set [4] is listed as “no activity across the entire pH range”.
YVMSHFRWNKFGRRNSSSSSGGH: the not cleaved entry in data set [5] is given as “completely stable in CSF (up to 72 h)”.
For the molecule YVMSHFRWNKFGRRNSSSSSSSSSSSSSGGH, the not cleaved entry in data set [5] is reported as “completely stable in CSF (up to 72 h)”.
Same read-out and setting: for YVMSHFRWNKFGRRNSSSSSSSSSSSSSSSSSSGGH the value was “completely stable in CSF (up to 72 h)”.
